Here are results for 1 molecule from patent US11046945B2, “Labeled glutaminase proteins, isolated glutaminase protein mutants, methods of use, and kit” (CORNELL UNIVERSITY, priority 2013, dated 2021).

In this assay the target is T1, 488-K316E-D391K-R459E-GAC (Mus musculus, UniProt D3Z7P3, D391K/K316E/R459E).
T1 construct: plasmid (residues 72-603 for GAC, 72-674 for KGA); His-tag with thrombin cleavage site (N, cleaved yes); made in house; host or cells: pET23a vector
T1 sequence (D3Z7P3 72-603 isoform D3Z7P3-2 K316E/D391K/R459E): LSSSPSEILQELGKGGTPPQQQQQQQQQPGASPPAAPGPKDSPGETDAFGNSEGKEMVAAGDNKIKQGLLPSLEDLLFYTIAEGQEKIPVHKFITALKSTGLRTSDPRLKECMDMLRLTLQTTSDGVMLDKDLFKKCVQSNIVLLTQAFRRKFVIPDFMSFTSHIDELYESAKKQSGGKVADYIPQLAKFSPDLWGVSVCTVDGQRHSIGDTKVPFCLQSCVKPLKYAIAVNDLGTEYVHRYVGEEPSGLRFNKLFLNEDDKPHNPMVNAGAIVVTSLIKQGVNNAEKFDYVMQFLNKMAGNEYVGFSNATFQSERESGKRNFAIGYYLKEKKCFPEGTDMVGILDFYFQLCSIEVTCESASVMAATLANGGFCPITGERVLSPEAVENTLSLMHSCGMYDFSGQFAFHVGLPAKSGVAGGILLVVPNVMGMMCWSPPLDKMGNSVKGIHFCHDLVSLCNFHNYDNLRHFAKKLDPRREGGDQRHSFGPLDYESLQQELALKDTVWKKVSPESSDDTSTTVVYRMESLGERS
Description: Real-time binding read-out by fluorescence quenching, monomer mutant. As to conditions: 20 nM 488-labeled protein, 968 titration. The procedure: Real-time fluorescence monitoring of 488-GAC fluorescence and NADH fluorescence was performed on a Varian Carry Eclipse Fluorometer, whereas small molecule inhibition and binding titrations were performed in a 96-well format using Grenier non-binding 96-well plates in a Tecan Saphire absorbance and fluorescence plate reader. Samples for monitoring real time binding of 968 to 488-GAC were prepared by adding 10 μL […] (490 nm excitation/520 nm emission). Similarly, this method was replicated for monitoring real time binding of 968 to KGA and mutant forms of GAC, namely 488-D391K-GAC and 488-K316E-D391K-R459E-GAC. Titrations of 968 with mutant forms of GAC were done in triplicate and quantified by the following equation
[formula] where F is the normalized fluorescence at given drug concentration (i.e., F/F0), and Fsat is the normalized fluorescence at saturating concentrations of drug, as shown in FIG. 7A. […] 10 nM WT GAC was added and allowed to equilibrate 2 minutes before beginning to monitor fluorescence of 488-GAC (490 nm excitation, 520 nm emission) and NADH fluorescence (340 nm excitation, 490 nm emission). […] The activity of GAC was indirectly measured by the NADH produced by the added glutamate dehydrogenase, which converts the product of glutaminase activity, glutamate, to α-ketoglutarate and ammonia through reducing NAD^+ to NADH. […]

For the molecule `CN(C)c1ccc(C2Nc3ccc4ccccc4c3C3=C2C(=O)CC(C)(C)C3)cc1Br` (stereo not shown) [compound 968], the “binding to monomeric GAC (K316E-D391K-R459E) mutant, relative affinity” value is on record as “highest affinity”.
